SMILES strings stand for the structures. Bounds are passed on as bounds.

Experimental findings from patent US4354033A, “Anthranilic acid esters” (Council of Scientific & Industrial Research, priority 1981, dated 1982) are described below.

The nature of data set [1]: Anti-inflammatory activity in a battery of tests (summary statement). It is filed as in vivo.
For another data set, the system named is capillary permeability. The settings on record: at 100 mg.
In a further data set the test system is cotton pellet granuloma. Briefly: Cotton pellet granuloma. It is filed as in vivo. The settings on record: 100 mg/kg orally daily for 7 days.
A short description of another data set: LD50 i.p. in mice. The settings on record: mouse, in vivo, ip.
Data set [2] has as its system formaldehyde induced arthritis. Briefly: Formaldehyde arthritis. As to conditions: 100 mg/kg orally daily for 10 days. It is filed as in vivo.
Another data set is described as follows: Ulcerogenic properties. It is filed as in vivo. As to conditions: 100 mg/kg daily orally for 7 days.
In the next data set the test system is carrageenin oedema. Briefly: Antiinflammatory action (rats), carrageenin oedema. It is filed as in vivo. The settings on record: for inhibition of carrageenin oedema: 200 mg/kg (p.o.); for inhibition (carrageenin): rats, 100 mg/kg p.o. How it is done:
Antiinflammatory action (Rats): Dose: 100 mg/kg p.o.
(ii) It produces 30% inhibition when given 1/2 hour before the injection of carrageenin.
Effect on carrageenin oedema at 200 mg/kg (p.o.)
(i) 60% inhibition when given 1 hour before the injection of carrageenin.
(iii) 62% of inhibition when given 1/2 hour after the injection of carrageenin.
Antiinflammatory action (Rats)
Effect on carrageenin oedema at 200 mg/kg

Where [3] appears, read: 1/2 hour after injection of carrageenin.
Where [4] appears, read: 1/2 hour before injection of carrageenin.

Broadly, the LD50 is the dose expected to kill half of the subjects tested. A low value points to a more toxic substance. For `O=C(COC(=O)c1ccccc1NCCc1ccccc1)c1ccccc1` [2-N-β-phenethyl phenacyl anthranilate, 2-N-β-phenethyl-phenacyl anthranilate], the anti-inflammatory activity entry in data set [1] is listed as “potent anti-inflammatory activity”. Also, in the data set with capillary permeability, the “inhibition (mouse capillary permeability)” value stood at 52%. The “inhibition of cotton pellet granuloma” value in the data set on cotton pellet granuloma is listed as 31%. Further, the LD50 in the data set “LD50 i.p. in mice” is greater than 800 mg/kg. The “inhibition of formaldehyde induced arthritis” value in data set [2] was 14%. Also, in the data set “Ulcerogenic properties”, the ulcerogenic activity result is listed as “does not show any ulcerogenic activity”. The “inhibition of carrageenin oedema” value with carrageenin oedema (setting [3]) was found to be 62%; in the data set on carrageenin oedema (setting [4]), 43%; with carrageenin oedema (1 hour before injection of carrageenin), 60%. For the same compound, the figures for the “inhibition (carrageenin)” value with carrageenin oedema (setting [3]), in the data set with carrageenin oedema (setting [4]) and in the data set with carrageenin oedema (one hour before injection of carrageenin) were 43%, 30% and 44.5%, respectively.
